Experimental findings from patent US6339103B1, “Fungicides” (Aventis CropScience UK Limited, priority 1998, dated 2002) are described below.

The structures appear in SMILES notation.

In this test the test system is Plasmopara viticola. Put plainly: Vine downy mildew disease control, foliar spray on vines. It counts as in vivo. To be noted: aqueous solution sprayed onto vines to run off, then inoculated with 100,000 spores per ml, compared with untreated plants. Here is the method: Aqueous solutions of the compound of Example 1 were sprayed at various concentrations onto vines to run off using a hand-sprayer. Plants were then inoculated by hand spraying with a spore suspension of 100,000 spores per ml of Plasmopara viticola. For the purposes of comparison the vines were sprayed also with the commercially available propamocarb hydrochloride.
Plants were assessed for degree of disease control compared with untreated plants.

`CCCOC(=O)NCCCN(C)C.Cl` [propamocarb hydrochloride, propyl 3-(dimethylamino)propylcarbamate hydrochloride]: the “% Control” value is listed as 4.2% (rate 400 ppm) and 14.6% (rate 800 ppm).
In the same order, the values of `CCCOC(=O)NCCCN(C)C.CCO[PH](=O)O` [Compound of invention, dimethyl-[3-(propoxycarbonylamino)propyl]ammonium O-ethylphosphonate] are 27.6% and 81.5%.
